According to PubChem BioAssay (NCI):
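Assay format: 96-well plates, 48-hour exposure. GI50 marks 50% less growth. TGI denotes the concentration required for complete inhibition of growth.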

Legend:
Assay in all cases: NCI anticancer screen, dose series, 48 h
TK-10 renal = tested on: TK-10 renal
SN12C renal = tested on: SN12C renal
HL-60(TB) leukemia = tested on: HL-60(TB) leukemia
MALME-3M melanoma = tested on: MALME-3M melanoma
SF-268 CNS = tested on: SF-268 CNS
UO-31 renal = tested on: UO-31 renal
OVCAR-3 ovarian = tested on: OVCAR-3 ovarian
SK-MEL-5 melanoma = tested on: SK-MEL-5 melanoma
RXF 393 renal = tested on: RXF 393 renal
M14 melanoma = tested on: M14 melanoma
MOLT-4 leukemia = tested on: MOLT-4 leukemia
SW-620 colon = tested on: SW-620 colon
CCRF-CEM leukemia = tested on: CCRF-CEM leukemia
BT-549 breast = tested on: BT-549 breast
SF-539 CNS = tested on: SF-539 CNS
MDA-MB-435 = tested on: MDA-MB-435
UACC-62 melanoma = tested on: UACC-62 melanoma
DU-145 prostate = tested on: DU-145 prostate
HCC-2998 colon = tested on: HCC-2998 colon
RPMI-8226 leukemia = tested on: RPMI-8226 leukemia
HT29 colon = tested on: HT29 colon
SK-OV-3 ovarian = tested on: SK-OV-3 ovarian
PC-3 prostate = tested on: PC-3 prostate
HCT-15 colon = tested on: HCT-15 colon
UACC-257 melanoma = tested on: UACC-257 melanoma
SNB-19 CNS = tested on: SNB-19 CNS
A498 renal = tested on: A498 renal
NCI/ADR-RES ovarian = tested on: NCI/ADR-RES ovarian
LOX IMVI melanoma = tested on: LOX IMVI melanoma
NCI-H522 lung = tested on: NCI-H522 lung
MCF7 breast = tested on: MCF7 breast
ACHN renal = tested on: ACHN renal
U251 CNS = tested on: U251 CNS
HOP-92 NSCLC = tested on: HOP-92 NSCLC
EKVX NSCLC = tested on: EKVX NSCLC
COLO 205 colon = tested on: COLO 205 colon
MDA-MB-231 breast = tested on: MDA-MB-231 breast
HOP-62 NSCLC = tested on: HOP-62 NSCLC
T-47D breast = tested on: T-47D breast
SNB-75 CNS = tested on: SNB-75 CNS
CAKI-1 renal = tested on: CAKI-1 renal
IGROV1 ovarian = tested on: IGROV1 ovarian
A549 NSCLC = tested on: A549 NSCLC
OVCAR-4 ovarian = tested on: OVCAR-4 ovarian
SF-295 CNS = tested on: SF-295 CNS
786-0 renal = tested on: 786-0 renal
MDA-MB-468 breast = tested on: MDA-MB-468 breast
HCT-116 colon = tested on: HCT-116 colon
SK-MEL-28 melanoma = tested on: SK-MEL-28 melanoma
SR leukemia = tested on: SR leukemia
K-562 leukemia = tested on: K-562 leukemia
NCI-H23 lung = tested on: NCI-H23 lung
KM12 colon = tested on: KM12 colon
OVCAR-5 ovarian = tested on: OVCAR-5 ovarian

For `CC[C@]12C=CCN3CC[C@@]4(c5ccc(OC)cc5N(C)[C@H]4[C@@](O)(C(=O)OC)[C@@H]1OC(=O)CCC[P+](c1ccc(C)cc1)(c1ccc(C)cc1)c1ccc(C)cc1)[C@@H]32`, the GI50 (TK-10 renal) was 0.602 µM, the TGI (TK-10 renal) was 1.92 µM and the GI50 (SN12C renal) was 0.264 µM. It also gave a TGI (SN12C renal) of 0.949 µM, a GI50 (HL-60(TB) leukemia) of 0.178 µM and a TGI (HL-60(TB) leukemia) of 0.593 µM. For the same molecule, the GI50 (MALME-3M melanoma) was 0.189 µM, the TGI (MALME-3M melanoma) was 0.448 µM and the GI50 (SF-268 CNS) was 0.335 µM. The TGI (SF-268 CNS) was 1.42 µM, the GI50 (UO-31 renal) was 1.45 µM and the TGI (UO-31 renal) was 2.82 µM. The GI50 (OVCAR-3 ovarian) was 0.337 µM, the TGI (OVCAR-3 ovarian) was 1.27 µM and the GI50 (SK-MEL-5 melanoma) was 0.356 µM. It also gave a TGI (SK-MEL-5 melanoma) of 1.04 µM, a GI50 (RXF 393 renal) of 0.256 µM and a TGI (RXF 393 renal) of 0.911 µM. For the same molecule, the GI50 (M14 melanoma) was 0.384 µM, the TGI (M14 melanoma) was 1.37 µM and the GI50 (MOLT-4 leukemia) was 0.32 µM. The TGI (MOLT-4 leukemia) was 1.46 µM, the GI50 (SW-620 colon) was 0.399 µM and the TGI (SW-620 colon) was 1.58 µM. The GI50 (CCRF-CEM leukemia) was 0.301 µM, the TGI (CCRF-CEM leukemia) was 1.45 µM and the GI50 (BT-549 breast) was 0.227 µM. The TGI (BT-549 breast) was 0.727 µM, the GI50 (SF-539 CNS) was 0.313 µM and the TGI (SF-539 CNS) was 1.1 µM. The GI50 (MDA-MB-435) was 0.29 µM, the TGI (MDA-MB-435) was 1.04 µM and the GI50 (UACC-62 melanoma) was 0.247 µM. The TGI (UACC-62 melanoma) was 0.822 µM, the GI50 (DU-145 prostate) was 0.427 µM and the TGI (DU-145 prostate) was 1.58 µM. For the same molecule, the GI50 (HCC-2998 colon) was 0.319 µM, the TGI (HCC-2998 colon) was 1.2 µM and the GI50 (RPMI-8226 leukemia) was 0.128 µM. The TGI (RPMI-8226 leukemia) was 1.04 µM, the GI50 (HT29 colon) was 0.195 µM and the TGI (HT29 colon) was 0.446 µM. For the same molecule, the GI50 (SK-OV-3 ovarian) was 0.262 µM, the TGI (SK-OV-3 ovarian) was 0.794 µM and the GI50 (PC-3 prostate) was 0.236 µM. It also gave a TGI (PC-3 prostate) of 1.08 µM, a GI50 (HCT-15 colon) of 1.63 µM and a TGI (HCT-15 colon) of 3.04 µM. It also gave a GI50 (UACC-257 melanoma) of 0.31 µM, a TGI (UACC-257 melanoma) of 1.12 µM and a GI50 (SNB-19 CNS) of 0.29 µM. For the same molecule, the TGI (SNB-19 CNS) was 1.14 µM, the GI50 (A498 renal) was 1.56 µM and the TGI (A498 renal) was 3.23 µM. It also gave a GI50 (NCI/ADR-RES ovarian) of 8.87 µM, a TGI (NCI/ADR-RES ovarian) of 49.6 µM and a GI50 (LOX IMVI melanoma) of 0.327 µM. The TGI (LOX IMVI melanoma) was 1.14 µM, the GI50 (NCI-H522 lung) was 0.264 µM and the TGI (NCI-H522 lung) was 0.929 µM. It also gave a GI50 (MCF7 breast) of 0.229 µM, a TGI (MCF7 breast) of 0.968 µM and a GI50 (ACHN renal) of 1.32 µM. For the same molecule, the TGI (ACHN renal) was 2.7 µM, the GI50 (U251 CNS) was 0.258 µM and the TGI (U251 CNS) was 1.4 µM. It also gave a GI50 (HOP-92 NSCLC) of 0.173 µM, a TGI (HOP-92 NSCLC) of 0.578 µM and a GI50 (EKVX NSCLC) of 0.46 µM. It also gave a TGI (EKVX NSCLC) of 1.78 µM, a GI50 (COLO 205 colon) of 0.18 µM and a TGI (COLO 205 colon) of 0.364 µM. It also gave a GI50 (MDA-MB-231 breast) of 0.234 µM, a TGI (MDA-MB-231 breast) of 0.61 µM and a GI50 (HOP-62 NSCLC) of 0.311 µM. It also gave a TGI (HOP-62 NSCLC) of 1.17 µM, a GI50 (T-47D breast) of 0.247 µM and a TGI (T-47D breast) of 0.907 µM. For the same molecule, the GI50 (SNB-75 CNS) was 0.217 µM, the TGI (SNB-75 CNS) was 0.777 µM and the GI50 (CAKI-1 renal) was 1.33 µM. It also gave a TGI (CAKI-1 renal) of 3.05 µM, a GI50 (IGROV1 ovarian) of 0.336 µM and a TGI (IGROV1 ovarian) of 1.18 µM. It also gave a GI50 (A549 NSCLC) of 0.369 µM, a TGI (A549 NSCLC) of 1.47 µM and a GI50 (OVCAR-4 ovarian) of 0.352 µM. For the same molecule, the TGI (OVCAR-4 ovarian) was 1.58 µM, the GI50 (SF-295 CNS) was 0.371 µM and the TGI (SF-295 CNS) was 1.31 µM. The GI50 (786-0 renal) was 0.756 µM, the TGI (786-0 renal) was 2.08 µM and the GI50 (MDA-MB-468 breast) was 0.133 µM. It also gave a TGI (MDA-MB-468 breast) of 0.354 µM, a GI50 (HCT-116 colon) of 0.271 µM and a TGI (HCT-116 colon) of 1.11 µM. For the same molecule, the GI50 (SK-MEL-28 melanoma) was 0.383 µM, the TGI (SK-MEL-28 melanoma) was 1.46 µM and the GI50 (SR leukemia) was 0.294 µM. The TGI (SR leukemia) was 1.4 µM, the GI50 (K-562 leukemia) was 0.14 µM and the TGI (K-562 leukemia) was 1.15 µM. The GI50 (NCI-H23 lung) was 0.282 µM, the TGI (NCI-H23 lung) was 1.02 µM and the GI50 (KM12 colon) was 0.309 µM. For the same molecule, the TGI (KM12 colon) was 1.11 µM, the GI50 (OVCAR-5 ovarian) was 0.267 µM and the TGI (OVCAR-5 ovarian) was 0.905 µM.
